# Values of other authors in paper PMC10049421, “Anticancer Activity of Sunitinib Analogues in Human Pancreatic Cancer Cell Cultures under Normoxia and Hypoxia” (International Journal of Molecular Sciences, 2023).
# What was measured:
# PANC-1 cells = conditions: PANC-1, 5 μM; cited from earlier work
# MIA PaCa-2 cell line [1] = tested on: MIA PaCa-2 cell line; parameters: method as in PMID 30341797; conditions: MIA PaCa-2, 5 μM; cited from earlier work
# PANC-1 cell monolayer = conditions: PANC-1, 1 μM, 24 h and 48 h; cited from earlier work
# MIA PaCa-2 cell line [2] = tested on: MIA PaCa-2 cell line; parameters: method as in PMID 26176887; conditions: MIA PaCa-2, 1 μM, 24 h and 48 h; cited from earlier work
compound,measurement,setting,value
Nc1ccn([C@@H]2O[C@H](CO)[C@@H](O)C2(F)F)c(=O)n1 [gemcitabine],colony formation,PANC-1 cells,statistically significantly reduced
same,colony formation,MIA PaCa-2 cell line [1],statistically significantly reduced
same,'wounds' compared to the control,PANC-1 cell monolayer,did not show a significant difference
same,'wounds' compared to the control,MIA PaCa-2 cell line [2],did not show a significant difference
